Measurements taken from patent US8609688B2, “Substituted imidazopyridinyl-aminopyridine compounds” (ArQule, Inc., priority 2011, dated 2013).

What was measured:
[1] = biological target: T1, Full-length inactive AKT1 (Homo sapiens (Human), UniProt P31749); assay: Thermal Shift Assay (protein-ligand binding); conditions: Kd at 25° C. calculated using constant ligand binding enthalpy −15 kcal/mol; 15 μM compound, ANS dye
Procedure: Binding analysis. Protein-ligand binding was identified with the thermal shift assay which is based on the ligand-induced stabilization of the protein tertiary structure. The thermal stability of the ligand-Akt1 complex was assessed by subjecting the complex to a set temperature gradient and by comparison of the meltion temperature of the Akt1-ligand complex with the melting temperature of the protein alone. Protein unfolding was monitored by the fluorescence readout of an environmentally sensitive fluorescent dye, 1-anilinonaphthalene-8-sulfonic acid (ANS). […] The PCR plate was placed into a RT-PCR instrument and a temperature gradient was performed, increasing from 27 to 80° C., at 1° C./30 sec heat rate with a dwell time of 20 sec. The change in ANS fluorescence was measured using the filter set of 475 nm/525 nm excitation/emission.

cells = assay: Cell proliferation / viability GI50 (MTS assay or ATP quantitation assay); type: cell-based; conditions: 72 hours treatment; cell line and assay (MTS or ATP quantitation) not stated
Procedure: Cell proliferation analysis. Cell survival was determined by the MTS assay. Briefly, cells were plated in a 96-well plate at 2,000-10,000 cells per well, cultured for 24 hours in complete growth medium, and then treated with various drugs and drug combinations for 72 hours. MTS was added and incubated for 4 hour, followed by assessment of cell viability using the microplate reader at 570 nm. Data were normalized to untreated controls and analyzed with Microsoft Excel.
Cell viability analysis. Cell viability was determined by the ATP quantitation assay. Briefly, cells were plated in a 96-well plate at 2,000-10,000 cells per well, cultured for 24 hours in complete growth medium, and then treated with various drugs or combination of drugs for 72 hours. CellTiter-Glo® reagent was added and incubated at room temperature for 10 minutes, followed by assessment of cell viability using a luminometer. Data were normalized to untreated controls and analyzed with Microsoft Excel.

Phospho-Akt (S473) = assay: Cell ELISA Assay, Phospho-Akt detection; type: cell-based; conditions: cells treated for 1 hour, cell line not stated
Procedure: Phospho-Akt detection analysis. Phospho-Akt (S473) was detected using cell ELISA. Briefly, cells were plated in a 96-well plate at 7,000-10,000 cells per well, cultured for 2-3 days in complete growth medium, and then treated with various drugs or combinations of drugs for 1 hour. The cells were fixed with ice-cold methanol, and washed with TBS supplemented with 1% H2O2. Phospho-Akt (S473) was probed with corresponding rabbit antibody as a primary antibody, and horseradish peroxidase conjugated goat anti-rabbit IgG. After treatment with SuperSignal® ELISA for 15 minutes, the detection was performed using a luminometer. Data were normalized to untreated controls and analyzed with Microsoft Excel.

[2] = biological target: T1, Full-length inactive AKT1; assay: Inactive Akt Alpha Screen Assay; conditions: 8 nM inactive Akt1 activated by PDK1 and MAPKAPK2, lipid vesicles, 50 μM ATP, biotinylated crosstide; read-out: Akt1 biochemical assay IC50 AlphaScreen crosstide
Procedure: AKT1 activity was assayed using the GSK3-derived biotinylated peptide substrate, crosstide (biotin-[…]), and AlphaScreen™ (Amplified Luminescent Proximity Homogeneous Assay) technology. AKT1 activation was achieved by the addition of the activating kinases PDK1 and MAPKAPK2, lipid vesicles, and ATP. The extent of peptide phosphorylation was determined using a phospho-AKT substrate antibody and acceptor beads conjugated to Protein A and donor beads conjugated to streptavidin that bind to the biotin on the peptide. Excitation of the donor beads converted ambient oxygen to excited singlet oxygen which, when in close proximity to acceptor beads, reacted with acceptor beads resulting in signal amplification.
After a 20 minute pre-incubation at room temperature, the kinase reaction was initiated by the addition of 5 μL of an activation mixture diluted in assay buffer containing biotinylated crosstide, PDK1, MAPKAPK2, DOPS/DOPC, PtdIns(3,4,5)P3, and ATP for final concentrations of 60 nM biotinylated crosstide, 0.1 nM PDK1, 0.7 nM MK2, 5.5 μM DOPS, 5.5 μM DOPC, 0.5 μM PtdIns(3,4,5)P3, and 50 μM ATP. The plates were incubated for 30 minutes at room temperature, and then stopped in the dark by the addition of 10 μL stop/detection mixture prepared in assay buffer containing EDTA, AlphaScreen™ Streptavidin Donor and Protein A Acceptor beads, and phospho-AKT substrate antibody for final concentrations of 10 mM EDTA, 500 ng/well of both AlphaScreen™ Streptavidin Donor beads and Protein A Acceptor beads, and phospho-AKT substrate antibody at a final dilution of 1:350. Assay plates were incubated for 90 minutes at room temperature in the dark, and the plates were read on a Perkin Elmer Envision Multilabel plate reader (excitation wavelength: 640 nm, emission wavelength: 570 nm). […]

T1 sequence (P31749 whole entry): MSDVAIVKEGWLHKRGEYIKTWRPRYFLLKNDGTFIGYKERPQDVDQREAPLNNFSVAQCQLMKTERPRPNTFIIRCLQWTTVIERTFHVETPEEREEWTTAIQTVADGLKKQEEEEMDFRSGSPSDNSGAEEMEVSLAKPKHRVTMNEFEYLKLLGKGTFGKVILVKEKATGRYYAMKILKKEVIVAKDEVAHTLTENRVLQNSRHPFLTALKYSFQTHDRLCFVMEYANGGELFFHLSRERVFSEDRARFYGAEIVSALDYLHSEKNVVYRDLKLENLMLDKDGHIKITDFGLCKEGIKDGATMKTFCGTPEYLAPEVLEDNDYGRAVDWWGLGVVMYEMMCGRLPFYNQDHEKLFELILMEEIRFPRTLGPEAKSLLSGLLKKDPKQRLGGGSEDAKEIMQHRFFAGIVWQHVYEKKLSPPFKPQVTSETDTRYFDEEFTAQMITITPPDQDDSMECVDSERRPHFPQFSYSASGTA

Kd [1]: 1.1 nM
IC50 (Phospho-Akt (S473)): 11 nM
IC50 [2]: 1.84 nM
SMILES: Nc1ncccc1-c1nc2ccc(-c3cccc(N4CCN(C(=O)C5CC5)CC4)c3)nc2n1-c1ccc(C2(N)CCC2)cc1 [Cmpd 14, (4-(3-(3-(4-(1-aminocyclobutyl)phenyl)-2-(2-aminopyridin-3-yl)-3H-imidazo[4,5-b]pyridin-5-yl)phenyl)piperazin-1-yl)(cyclopropyl)methanone]
GI50 (cells): 296000 nM
